Structures can show the parent of a compound that is named as a salt.

The target of one experiment is T1, α-1A adrenoceptor (dog prostate) (Canis lupus, UniProt A0A8I3NK63).
T1 sequence (A0A8I3NK63 1-466): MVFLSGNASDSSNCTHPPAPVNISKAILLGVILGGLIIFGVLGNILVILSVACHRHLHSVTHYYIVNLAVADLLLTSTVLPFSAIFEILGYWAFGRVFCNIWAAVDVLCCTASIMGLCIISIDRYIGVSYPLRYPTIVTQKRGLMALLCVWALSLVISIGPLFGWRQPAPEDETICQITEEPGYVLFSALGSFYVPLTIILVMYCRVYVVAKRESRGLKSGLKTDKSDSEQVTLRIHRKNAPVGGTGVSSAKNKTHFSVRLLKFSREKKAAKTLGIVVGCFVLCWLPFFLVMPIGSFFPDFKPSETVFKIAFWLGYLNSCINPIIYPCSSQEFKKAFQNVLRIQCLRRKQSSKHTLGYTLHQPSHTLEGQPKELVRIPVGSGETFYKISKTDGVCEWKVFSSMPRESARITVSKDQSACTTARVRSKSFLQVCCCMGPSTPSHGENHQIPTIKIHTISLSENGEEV
Kind of experiment: Functional antagonism: phenylephrine (PE)-induced contraction of canine prostate strips. As to conditions: Table 2b; vs phenylephrine; Schild plot. Format: cell-based. An excerpt:
Functional assays indicative of pharmacologically defined α-1 adrenoceptors were used to further characterize compounds. Inhibition of phenylephrine (PE)-induced contraction of canine prostate smooth muscle can be correlated with α-1A adrenoceptor activation. […] For each of these models, agonist dose response curves were repeated against increasing concentrations of test agent to derive a Schild plot [log ([…]) against log (molarity of test agent)] to determine the pA2.
Canine prostate strips were used in vitro as previously described (Hieble, J. P., Boyce, A. J. and Caine, M., Fed. Proc., 45:2609-2614 (1986)), to determine antagonist potencies against phenylephrine-induced contractions.
In the case of `COc1cccc2c1[C@@H]1CN(CCn3c(=O)[nH]c4c(sc5ccccc54)c3=O)C[C@H]1CC2` (relative stereo) [Example 2, 3-[2-(trans-9-Methoxy-2,3,3a4,5,9b-hexahydro-[1H]-benz[e]isoindol-1-yl)ethyl]-[1]benzothieno[3,2-d]pyrimidine-2,4(1H,3H)-dione hydrochloride], the “pA2 Dog Prostate [α-1A]” value was 7.81. The same measure, in the same setting: the result for `COc1cccc2c1CC[C@H]1CN(CCn3c(=O)[nH]c4c(oc5ccccc54)c3=O)C[C@@H]21` (relative stereo) [Example 3, 3-[2-(cis-6-Methoxy-2,3,3a,4,5,9b-hexahydro-1H]-benz[e]isoindol-1-yl)ethyl]-benzofuro[3,2-d]pyrimidine-2,4(1H,3H)-dione hydrochloride] reads 8.4. On the same count and under the same terms, the value for `COc1cccc2c1[C@@H]1CN(CCCn3c(=O)[nH]c4c(sc5ccccc54)c3=O)C[C@@H]1CC2` (relative stereo) [Example 6, hydrochloride] was 6.91. The same measure, in the same setting: the result for `COc1cccc2c1CC[C@H]1CN(CCn3c(=O)[nH]c4sc5c(c4c3=O)CCCC5)C[C@@H]21` (relative stereo) [Example 7, 3-[2-(cis-6-Methoxy-2,3,3a4,5,9b-hexahydro-[1H]-benz[e]isoindol-1-yl)ethyl]-[1]-5,6,7,8-tetrahydrobenzothieno[2,3-d]pyrimidine-2,4(1H,3H)-dione hydrochloride] reads 7.85; that for `COc1cccc2c1CC[C@H]1CN(CCCCn3c(=O)[nH]c4c(sc5ccccc54)c3=O)C[C@@H]21` (relative stereo) [Example 12, 3-[4-(cis-6-Methoxy-2,3,3a,4,5,9b-hexahydro-[1H]-benz[e]isoindol-1-yl)butyl]-[1]benzothieno[3,2-d]pyrimidine-2,4(1H,3H)-dione hydrochloride], 7.33; that for `COc1cccc2c1CC[C@H]1CN(CCn3c(=O)[nH]c4sc5ccccc5c4c3=O)C[C@@H]21` (relative stereo) [Example 13, 3-[2-(cis-6-Methoxy-2,3,3a,4,5,9b-hexahydro-[1H]-benz[e]isoindol-1-yl)ethyl]-[1]benzothieno[2,3-d]pyrimidine-2,4(1H,3H)-dione hydrochloride], 7.68.

Consider `COc1cccc2c1[C@@H]1CN(CCCCn3c(=O)[nH]c4c(sc5ccccc54)c3=O)C[C@@H]1CC2` (relative stereo) [Example 15, 3-[4-(cis-9-Methoxy-2,3,3a,4,5,9b-hexahydro-1H]-benz[e]isoindol-1-yl)butyl]-[1]benzothieno[3,2-d]pyrimidine-2,4(1H,3H)-dione hydrochloride], for which the “pA2 Dog Prostate [α-1A]” value is reported as 7.34. On the same count and under the same terms, the value for `O=c1[nH]c2c(sc3ccccc32)c(=O)n1CCN1C[C@@H]2CCc3c(O)cccc3[C@@H]2C1` (relative stereo) [Example 20, 3-2-(cis-6-Hydroxy-2,3,3a,4,5,9b-hexahydro-[1H]-benz[e]isoindol-1-yl)ethyl]-[1]benzothieno[3,2-d]pyrimidine-2,4(1H,3H) -dione hydrobromide] was 7.43. As to `COc1cccc2c1CC[C@H]1CN(CCn3c(=O)[nH]c4cc5ccccc5cc4c3=O)C[C@@H]21` (relative stereo) [Example 21, 3-[2-(cis-6-Methoxy-2,3,3a,4,5,9b-hexahydro-[1H]-benz[e]isoindol-1-yl)ethyl]-benzo[g]quinazoline-2,4(1H,3H):dione hydrochloride], the “pA2 Dog Prostate [α-1A]” value is given as 7.43. Consider `COc1cccc2c1CC[C@H]1CN(CCn3c(=O)[nH]c4c5c(sc4c3=O)CCCC5)C[C@@H]21` (relative stereo) [Example 22, hydrochloride], for which the “pA2 Dog Prostate [α-1A]” value amounted to 8.32. With `COc1cccc2c1CC[C@H]1CN(CCn3c(=O)[nH]c4c(oc5ncccc54)c3=O)C[C@@H]21` (relative stereo) [Example 27, 3-[2-(cis-6-Methoxy-2,3,3a,4,5,9b-hexahydro-[1H]-benz[e]isoindol-1-yl)ethyl]-pyrido[3',2':4,5]furo[3,2-d]pyrimidine-2,4(1H,3H)-dione hydrochloride], the “pA2 Dog Prostate [α-1A]” value is given as 8.72. Still for that read-out and setting: the result for `COc1cccc2c1CC[C@H]1CN(CCn3cnc4c(sc5ccccc54)c3=O)C[C@@H]21` (relative stereo) [Example 28, dihydrochloride] reads 7.75.

`COc1cccc2c1CC[C@H]1CN(CCn3c(C)nc4c(sc5ccccc54)c3=O)C[C@@H]21` (relative stereo) [Example 29, dihydrochloride]: the “pA2 Dog Prostate [α-1A]” value is 7.43.

For the molecule `COc1cccc2c1CC[C@H]1CN(CCn3c(-c4ccccc4)nc4c(sc5ccccc54)c3=O)C[C@@H]21` (relative stereo) [Example 30, 3-[2-(cis-6-Methoxy-2 3 3a,4,5,9b-hexahydro-[1H]-benz[e]isoindol-1-yl)ethyl]-2-phenyl-[1]benzothieno[3,2-d]-4(1H,3H)-one hydrochloride], the “pA2 Dog Prostate [α-1A]” value is 7.06.

For the molecule `O=c1[nH]c2c(sc3ncccc32)c(=O)n1CCN1C[C@@H]2CCc3c(ccc4c3OCO4)[C@@H]2C1` (relative stereo) [Example 111, hydrochloride], the “pA2 Dog Prostate [α-1A]” value was determined as 8.00.

For `COc1cccc2c1[C@H]1CN(CCn3c(=O)[nH]c4c(sc5ccccc54)c3=O)C[C@H]1CC2` [Example 19, hydrochloride], the “pA2 Dog Prostate [α-1A]” value is listed as 6.66. Turning to `COc1cccc2c1[C@@H]1CN(CCn3c(=O)[nH]c4c([nH]c5ccccc54)c3=O)C[C@@H]1CC2` [Example 24, hydrochloride], the “pA2 Dog Prostate [α-1A]” value came out at 8.6. Same read-out and setting: the value for `COc1cccc2c1CC[C@H]1CN(CCn3c(=O)[nH]c4c(sc5cc(C(F)(F)F)ccc54)c3=O)C[C@@H]21` [Example 32, 3-[2-((3aR,9bR)-cis76-Methoxy-2,3,3a,4,5,9b-hexahydro-[1-benz[e]isoindol-1-yl)ethyl]-7-trifluoromethyl[1]benzothieno[23-d]pyrimidine-2,4(1H,3H)-dione hydrochloride] was 7.46. Take `COc1cccc2c1CC[C@H]1CN(CCn3c(=O)c4sc5ccccc5c4n(C)c3=O)C[C@@H]21` [Example 33, hydrochloride]: the “pA2 Dog Prostate [α-1A]” value came to 6.56. The same measure, in the same setting: the value for `COc1cccc2c1CC[C@H]1CN(CCn3cnc4c(sc5ncccc54)c3=O)C[C@@H]21` [Example 34, 3-[2-((3aR,9bR)-cis-6-Methoxy-2,3,3a,4,5,9b-hexahydro-[1H]-benz[e]isoindol-1-yl)ethyl]-pyrido[3',2':4,51thieno[3,2:d]pyrimidine-4(3H)-one dihydrochloride] was 9.15; that for `COc1cccc2c1CC[C@H]1CN(CCn3c(=O)[nH]c4c(sc5cccnc54)c3=O)C[C@@H]21` [Example 37, dihydrochloride] was 9.15; that for `COc1cccc2c1CC[C@H]1CN(CCn3c(=O)[nH]c4c(sc5ccncc54)c3=O)C[C@@H]21` [Example 38, 3-[2-((3aR,9bR)-cis-6-Methoxy-2,3,3a,4,5,9b-hexahydro-[1H]-benz[e]isoindol-1-yl)ethyl]1-pyrido[3',4':4,5]thieno[3,2-d]pyrimidine-2,4(1H,3H)-dione dihydrochloride] was 9.75. On the same count and under the same terms, the value for `COc1cccc2c1CC[C@H]1CN(CCn3c(=O)[nH]c4c(sc5ncncc54)c3=O)C[C@@H]21` [Example 40, 3-[2-(cis-(3aR,9bR)-6-Methoxy-2,3,3a,4,5,9b-hexahydro-[1H]-benz[e]isoindol-1-yl)ethyl]-thieno[2,3-d:4,5]dipyrimidine-2,4(1H,3H)-dione] was 9.72; that for `COc1cccc2c1CC[C@H]1CN(CCn3c(=O)[nH]c4c(sc5cncnc54)c3=O)C[C@@H]21` [Example 41] was 9.03. For the molecule `COc1cccc2c1CC[C@H]1CN(CCn3c(=O)[nH]c4c(sc5cc(C#N)ccc54)c3=O)C[C@@H]21` [Example 42, 3-[2-((3aR,9bR)-cis-6-Methoxy-2,3,3a,4,5,9b-hexahydro-[1H]-benz[e]isoindol-1-yl)ethyl]-[1]-7-cyano-benzothieno[3,2-d]pyrimidine-2,4(1H,3H)-dione hydrochloride], the “pA2 Dog Prostate [α-1A]” value stood at 9.09. Still for that read-out and setting: the value for `COc1cccc2c1CC[C@H]1CN(CCn3c(=O)[nH]c4c(sc5ccc(C#N)cc54)c3=O)C[C@@H]21` [Example 43, 3-[2-((3aR,9bR)-cis-6-Methoxy-2,3,3a,4,5,9b-hexahydro-[1H]-benz[e]isoindol-1-yl)ethyl]-[1]-8-cyano-benzothieno[3,2-d]pyrimidine-2,4(1H,3H)-dione hydrochloride] was 8.44.

Still in this experiment, the particulars now being: Table 2b; vs phenylephrine; Schild plot; hydrochloride.
With `COc1cccc2c1CC[C@H]1CN(CCn3c(=O)[nH]c4c(sc5cccc(C)c54)c3=O)C[C@@H]21` [Example 35, 3-2-((3aR,9bR)-cis-6-Methoxy-2,3,3a,4,5,9b-hexahydro-[1H]-benz[e]isoindol-1-yl)ethyl]-9-methyl[1]benzothieno[3,2-d]pyrimidine-2,4(1H,3H)-dione hydrochloride], the “pA2 Dog Prostate [α-1A]” value was 8.74.

Source of the values: US5597823A, “Tricyclic substituted hexahydrobenz [e]isoindole alpha-1 adrenergic antagonists” (priority 1995, dated 1997).
